The text below walks through data of patent US20260207585A1, “METHODS AND COMPOSITIONS FOR THE TREATMENT OF PARKINSON'S DISEASE, HUNTINGTON'S DISEASE, AMYOTROPHIC LATERAL SCLEROSIS, AND LEARNING DISORDERS” (Cedars-Sinai Medical Center, priority 2022, published 2026).

Experiment [1] deals with PRMT3 (Homo sapiens, UniProt O60678). In words: Methyltransferase inhibition panel: PRMT3. The experiment is classed as biochemical. As for the experimental part: (§1) The ability of ETP69 to inhibit methyltransferases was tested.
PRMT3, sequence (O60678 whole entry): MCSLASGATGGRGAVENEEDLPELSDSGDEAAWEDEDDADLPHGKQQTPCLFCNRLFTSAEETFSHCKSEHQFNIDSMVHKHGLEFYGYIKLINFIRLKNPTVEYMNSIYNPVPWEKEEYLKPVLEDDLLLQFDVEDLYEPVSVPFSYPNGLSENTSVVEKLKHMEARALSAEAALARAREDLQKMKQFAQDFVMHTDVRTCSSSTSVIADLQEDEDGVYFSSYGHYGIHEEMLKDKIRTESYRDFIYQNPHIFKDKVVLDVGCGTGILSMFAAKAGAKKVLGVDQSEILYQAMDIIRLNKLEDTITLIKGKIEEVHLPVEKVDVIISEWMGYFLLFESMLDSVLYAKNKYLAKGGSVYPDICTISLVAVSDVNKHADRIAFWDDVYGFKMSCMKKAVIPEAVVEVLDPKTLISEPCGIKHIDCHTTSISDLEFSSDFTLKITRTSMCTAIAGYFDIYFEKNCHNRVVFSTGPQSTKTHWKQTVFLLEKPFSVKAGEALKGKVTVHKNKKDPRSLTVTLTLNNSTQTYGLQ
The subject of experiment [2] is dendritic spines. In words: Golgi-Cox staining of brain, dendritic spine quantification. The experiment is classed as in vivo, mice. The source says:
The brain of 18-month old mice was stained with the Golgi-Cox method to detect the cytoarchitecture and morphology of neurons. FIG. 1A depicts representative images of the cingulate cortex (cc) of mice administered DMSO or ETP69. FIG. 1B depicts a representative hippocampus. FIG. 1C depicts a representative neuron from a DMSO treated and ETP69 treated hippocampus. FIG. 1D is a schematic of the quantification of neuronal spines.
The brains were stained with the Golgi-Cox method to detect the cytoarchitecture and morphology of neurons. Representative images are shown of mice treated with DMSO (FIG. 10A-10C) and ETP69 (FIG. 10D-10F). The number of dendritic spines are quantified. […] Further, ETP69 administration reduced epigenetic H3K9me3 repression mark in cell-specific manners. H3K9 expression was reduced in neurons (FIGS. 11A-11B), astrocytes (FIGS. 11C-11D), and microglia macrophages (FIGS. 11E-11F).
Loss of synapses and dendritic spine abnormalities are associated with cognitive decline. To analyze these features in old mice administered ETP69, Golgi-Cox neuronal staining and synaptic marker staining was performed in cerebral cortices and hippocampi. Dendritic spines were classified as thin (filopodia-like and long-thin), stubby, or mushroom spines according to their size and shape, and quantified the spine density from high-magnification photographs.

In experiment [3] the target is SETD2 (Homo sapiens, UniProt Q9BYW2). The experiment can be described thus: Methyltransferase inhibition panel: SETD2. The experiment is classed as biochemical. As for the experimental part:
as §1

Experiment [4] has as its target T1, NSD3 (Homo sapiens, UniProt Q9BZ95).
T1 sequence (Q9BZ95 1-1437): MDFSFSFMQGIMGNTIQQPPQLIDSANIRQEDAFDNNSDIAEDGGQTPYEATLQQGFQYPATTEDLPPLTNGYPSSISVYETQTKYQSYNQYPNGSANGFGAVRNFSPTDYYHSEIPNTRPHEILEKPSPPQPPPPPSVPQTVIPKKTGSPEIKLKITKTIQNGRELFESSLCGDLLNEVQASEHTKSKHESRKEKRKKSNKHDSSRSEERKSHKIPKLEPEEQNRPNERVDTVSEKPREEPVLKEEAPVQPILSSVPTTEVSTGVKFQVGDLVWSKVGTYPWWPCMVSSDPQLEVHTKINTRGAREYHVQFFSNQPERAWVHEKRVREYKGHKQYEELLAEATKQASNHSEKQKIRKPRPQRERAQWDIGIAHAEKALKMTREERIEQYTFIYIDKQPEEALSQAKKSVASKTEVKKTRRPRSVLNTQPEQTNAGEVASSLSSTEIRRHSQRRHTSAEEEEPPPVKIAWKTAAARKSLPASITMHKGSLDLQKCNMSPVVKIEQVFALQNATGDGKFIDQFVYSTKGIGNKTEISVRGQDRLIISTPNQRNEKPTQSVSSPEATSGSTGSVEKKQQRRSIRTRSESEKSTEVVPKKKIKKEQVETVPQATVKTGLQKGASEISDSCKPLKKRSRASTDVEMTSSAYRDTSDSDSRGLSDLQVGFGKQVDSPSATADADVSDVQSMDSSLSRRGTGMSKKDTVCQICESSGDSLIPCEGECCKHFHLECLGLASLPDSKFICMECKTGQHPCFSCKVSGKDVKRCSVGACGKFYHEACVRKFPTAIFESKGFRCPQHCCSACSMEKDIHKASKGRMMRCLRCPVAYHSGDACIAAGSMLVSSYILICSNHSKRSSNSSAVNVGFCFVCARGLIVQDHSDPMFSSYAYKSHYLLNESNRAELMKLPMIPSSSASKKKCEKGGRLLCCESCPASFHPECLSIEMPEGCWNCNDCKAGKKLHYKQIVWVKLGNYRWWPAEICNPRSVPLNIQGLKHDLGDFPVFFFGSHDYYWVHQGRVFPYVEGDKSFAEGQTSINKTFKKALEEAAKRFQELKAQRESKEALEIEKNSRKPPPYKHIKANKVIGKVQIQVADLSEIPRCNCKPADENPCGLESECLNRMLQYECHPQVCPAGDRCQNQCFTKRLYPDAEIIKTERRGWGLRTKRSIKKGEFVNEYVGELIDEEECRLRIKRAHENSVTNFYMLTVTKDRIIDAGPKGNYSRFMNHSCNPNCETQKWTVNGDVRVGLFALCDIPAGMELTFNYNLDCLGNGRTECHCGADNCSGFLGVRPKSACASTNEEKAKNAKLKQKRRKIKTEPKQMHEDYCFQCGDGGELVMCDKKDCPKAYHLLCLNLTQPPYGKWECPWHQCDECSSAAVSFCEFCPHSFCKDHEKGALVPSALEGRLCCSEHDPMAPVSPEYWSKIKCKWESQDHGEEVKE
In words: Methyltransferase inhibition panel: NSD3. The experiment is classed as biochemical. Here is the method:
as §1

For experiment [5], the target named is MLL2 Complex (Homo sapiens, UniProt O14686). The experiment can be described thus: Methyltransferase inhibition panel: MLL2 Complex. The experiment is classed as biochemical. As for the experimental part: as §1
MLL2 Complex, sequence (O14686 5319-5537): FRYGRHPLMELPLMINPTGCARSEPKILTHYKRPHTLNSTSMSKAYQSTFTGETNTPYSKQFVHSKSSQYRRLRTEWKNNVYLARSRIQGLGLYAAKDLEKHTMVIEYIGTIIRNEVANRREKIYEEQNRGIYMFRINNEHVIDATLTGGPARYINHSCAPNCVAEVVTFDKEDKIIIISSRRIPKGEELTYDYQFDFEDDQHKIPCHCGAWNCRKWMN
MLL2 Complex, sequence (Q9UBL3 whole entry, further chain): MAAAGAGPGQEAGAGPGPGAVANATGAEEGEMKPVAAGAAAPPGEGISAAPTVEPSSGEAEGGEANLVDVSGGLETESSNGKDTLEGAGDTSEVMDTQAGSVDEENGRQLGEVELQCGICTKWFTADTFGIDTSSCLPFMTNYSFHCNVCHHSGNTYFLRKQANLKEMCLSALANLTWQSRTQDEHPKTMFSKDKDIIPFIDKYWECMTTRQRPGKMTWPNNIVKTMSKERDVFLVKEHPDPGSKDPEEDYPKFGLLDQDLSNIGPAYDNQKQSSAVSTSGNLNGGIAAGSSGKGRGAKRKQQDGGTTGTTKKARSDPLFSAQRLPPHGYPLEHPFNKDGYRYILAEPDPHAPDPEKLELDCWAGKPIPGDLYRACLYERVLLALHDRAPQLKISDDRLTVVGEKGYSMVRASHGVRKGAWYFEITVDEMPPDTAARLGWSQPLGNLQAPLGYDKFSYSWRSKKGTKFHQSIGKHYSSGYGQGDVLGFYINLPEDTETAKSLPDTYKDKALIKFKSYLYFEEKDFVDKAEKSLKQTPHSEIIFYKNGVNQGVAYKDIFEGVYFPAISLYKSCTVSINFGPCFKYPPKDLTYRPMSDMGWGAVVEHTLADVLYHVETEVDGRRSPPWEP
MLL2 Complex, sequence (Q9C005 whole entry, further chain): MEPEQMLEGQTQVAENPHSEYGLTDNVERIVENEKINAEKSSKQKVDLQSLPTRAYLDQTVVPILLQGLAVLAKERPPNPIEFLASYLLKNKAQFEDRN
MLL2 Complex, sequence (Q15291 whole entry, further chain): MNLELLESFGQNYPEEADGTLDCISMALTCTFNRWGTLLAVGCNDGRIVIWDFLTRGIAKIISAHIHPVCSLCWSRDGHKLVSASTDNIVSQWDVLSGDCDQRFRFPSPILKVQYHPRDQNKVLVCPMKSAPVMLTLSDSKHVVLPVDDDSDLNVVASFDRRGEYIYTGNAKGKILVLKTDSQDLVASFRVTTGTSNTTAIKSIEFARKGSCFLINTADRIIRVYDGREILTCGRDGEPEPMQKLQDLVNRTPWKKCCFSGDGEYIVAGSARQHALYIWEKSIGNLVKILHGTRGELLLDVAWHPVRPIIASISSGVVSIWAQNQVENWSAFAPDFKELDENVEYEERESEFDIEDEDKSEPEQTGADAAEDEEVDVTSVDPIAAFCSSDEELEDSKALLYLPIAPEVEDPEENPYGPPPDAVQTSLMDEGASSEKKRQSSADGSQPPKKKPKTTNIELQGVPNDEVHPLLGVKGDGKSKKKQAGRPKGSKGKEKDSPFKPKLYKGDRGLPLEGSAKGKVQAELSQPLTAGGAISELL
The target in experiment [6] is SMYD2 (Homo sapiens, UniProt Q9NRG4). The experiment can be described thus: Methyltransferase inhibition panel: SMYD2. The experiment is classed as biochemical. Here is the method:
as §1

Experiment [7] has as its target T2, SET7/9 (Homo sapiens, UniProt Q8WTS6).
T2 sequence (Q8WTS6 1-366): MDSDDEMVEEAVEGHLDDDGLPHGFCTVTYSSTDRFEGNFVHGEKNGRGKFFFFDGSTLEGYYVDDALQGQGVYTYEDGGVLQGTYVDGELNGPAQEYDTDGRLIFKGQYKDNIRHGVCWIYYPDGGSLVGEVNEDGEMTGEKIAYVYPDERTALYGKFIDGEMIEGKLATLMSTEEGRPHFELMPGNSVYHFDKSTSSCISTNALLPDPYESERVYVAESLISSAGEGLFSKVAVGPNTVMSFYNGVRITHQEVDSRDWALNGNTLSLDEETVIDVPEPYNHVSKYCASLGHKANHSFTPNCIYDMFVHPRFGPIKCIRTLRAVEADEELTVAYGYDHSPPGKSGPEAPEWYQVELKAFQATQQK
The experiment can be described thus: Methyltransferase inhibition panel: SET7/9. The experiment is classed as biochemical. As for the experimental part: as §1

Setting [8] is: read-out: Enzyme % Activity (relative to DMSO controls) Data 1.
The mark [9] stands for this setting: read-out: Enzyme % Activity (relative to DMSO controls) Data 2.
Where [10] appears, read: 18-month old mice, cingulate cortex (cc) and hippocampus, vs DMSO.
Where [11] appears, read: old (18-month-old) mice, 10 mg/kg i.p.
Setting [12] is: NT1721 20 μM, substrate Nucleosomes 0.05 mg/mL.

Where two headings read alike, the source gives them in different places.

SETD2, sequence (Q9BYW2 whole entry): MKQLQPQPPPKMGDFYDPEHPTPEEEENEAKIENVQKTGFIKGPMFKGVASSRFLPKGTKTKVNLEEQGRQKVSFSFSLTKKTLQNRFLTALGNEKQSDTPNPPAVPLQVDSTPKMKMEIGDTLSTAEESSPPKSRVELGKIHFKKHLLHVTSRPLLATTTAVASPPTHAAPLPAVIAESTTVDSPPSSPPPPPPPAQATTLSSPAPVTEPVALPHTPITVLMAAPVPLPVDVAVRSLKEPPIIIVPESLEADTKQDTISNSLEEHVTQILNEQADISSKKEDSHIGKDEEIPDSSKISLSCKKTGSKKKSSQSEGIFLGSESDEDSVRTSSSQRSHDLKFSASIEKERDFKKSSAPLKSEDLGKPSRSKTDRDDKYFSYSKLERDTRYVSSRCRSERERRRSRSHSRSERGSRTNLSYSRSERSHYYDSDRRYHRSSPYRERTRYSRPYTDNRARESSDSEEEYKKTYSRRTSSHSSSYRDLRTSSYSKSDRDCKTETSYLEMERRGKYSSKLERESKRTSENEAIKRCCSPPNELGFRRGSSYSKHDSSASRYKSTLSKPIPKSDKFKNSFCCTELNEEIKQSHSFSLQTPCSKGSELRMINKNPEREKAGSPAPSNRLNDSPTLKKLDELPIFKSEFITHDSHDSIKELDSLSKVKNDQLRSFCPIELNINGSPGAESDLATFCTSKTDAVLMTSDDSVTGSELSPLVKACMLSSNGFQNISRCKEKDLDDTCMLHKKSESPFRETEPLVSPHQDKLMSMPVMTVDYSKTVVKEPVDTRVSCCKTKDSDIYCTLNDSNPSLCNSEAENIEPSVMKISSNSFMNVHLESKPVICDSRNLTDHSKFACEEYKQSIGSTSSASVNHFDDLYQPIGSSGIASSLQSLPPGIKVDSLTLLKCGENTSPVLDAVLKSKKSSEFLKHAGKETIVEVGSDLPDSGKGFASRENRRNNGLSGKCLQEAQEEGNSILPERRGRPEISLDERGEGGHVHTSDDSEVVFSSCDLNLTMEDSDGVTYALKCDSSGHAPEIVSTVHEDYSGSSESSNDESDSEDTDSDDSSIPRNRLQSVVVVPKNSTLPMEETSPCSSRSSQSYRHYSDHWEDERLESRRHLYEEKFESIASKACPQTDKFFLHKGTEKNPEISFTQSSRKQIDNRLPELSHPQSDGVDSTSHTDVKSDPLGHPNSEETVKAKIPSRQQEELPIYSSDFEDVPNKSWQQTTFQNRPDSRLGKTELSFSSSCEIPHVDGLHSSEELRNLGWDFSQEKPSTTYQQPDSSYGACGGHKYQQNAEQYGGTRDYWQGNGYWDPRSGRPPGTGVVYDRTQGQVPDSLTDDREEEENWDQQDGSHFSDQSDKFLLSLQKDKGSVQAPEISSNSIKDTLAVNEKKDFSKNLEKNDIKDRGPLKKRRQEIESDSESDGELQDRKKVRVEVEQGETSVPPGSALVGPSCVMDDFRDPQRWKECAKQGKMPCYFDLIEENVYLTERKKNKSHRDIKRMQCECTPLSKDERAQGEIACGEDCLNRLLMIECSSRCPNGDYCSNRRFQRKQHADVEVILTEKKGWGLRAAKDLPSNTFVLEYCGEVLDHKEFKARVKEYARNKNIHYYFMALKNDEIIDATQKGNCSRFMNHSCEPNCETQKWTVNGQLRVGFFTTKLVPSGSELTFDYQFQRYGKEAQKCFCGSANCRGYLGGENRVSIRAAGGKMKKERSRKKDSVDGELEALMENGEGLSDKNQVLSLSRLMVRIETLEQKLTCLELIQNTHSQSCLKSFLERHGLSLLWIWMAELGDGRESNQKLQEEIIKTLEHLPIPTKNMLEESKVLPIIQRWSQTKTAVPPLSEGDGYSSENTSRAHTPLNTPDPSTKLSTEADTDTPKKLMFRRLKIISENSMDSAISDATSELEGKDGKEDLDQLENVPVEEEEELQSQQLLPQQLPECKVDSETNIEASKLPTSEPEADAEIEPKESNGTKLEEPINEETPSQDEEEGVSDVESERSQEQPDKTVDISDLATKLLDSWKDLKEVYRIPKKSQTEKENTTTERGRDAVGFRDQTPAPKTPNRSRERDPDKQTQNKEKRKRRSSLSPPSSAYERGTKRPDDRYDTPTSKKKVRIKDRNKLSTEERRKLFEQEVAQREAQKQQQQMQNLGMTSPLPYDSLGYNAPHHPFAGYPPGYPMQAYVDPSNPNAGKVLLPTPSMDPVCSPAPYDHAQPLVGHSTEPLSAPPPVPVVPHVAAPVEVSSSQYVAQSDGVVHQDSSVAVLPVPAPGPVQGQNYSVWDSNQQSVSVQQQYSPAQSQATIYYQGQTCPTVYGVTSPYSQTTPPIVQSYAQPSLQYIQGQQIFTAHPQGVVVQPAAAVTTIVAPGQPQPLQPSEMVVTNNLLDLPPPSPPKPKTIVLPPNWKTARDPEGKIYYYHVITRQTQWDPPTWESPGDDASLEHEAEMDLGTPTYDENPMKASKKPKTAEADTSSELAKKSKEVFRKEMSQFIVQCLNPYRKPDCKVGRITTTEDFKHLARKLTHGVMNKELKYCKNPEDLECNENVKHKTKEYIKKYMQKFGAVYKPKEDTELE
SMYD2, sequence (Q9NRG4 whole entry): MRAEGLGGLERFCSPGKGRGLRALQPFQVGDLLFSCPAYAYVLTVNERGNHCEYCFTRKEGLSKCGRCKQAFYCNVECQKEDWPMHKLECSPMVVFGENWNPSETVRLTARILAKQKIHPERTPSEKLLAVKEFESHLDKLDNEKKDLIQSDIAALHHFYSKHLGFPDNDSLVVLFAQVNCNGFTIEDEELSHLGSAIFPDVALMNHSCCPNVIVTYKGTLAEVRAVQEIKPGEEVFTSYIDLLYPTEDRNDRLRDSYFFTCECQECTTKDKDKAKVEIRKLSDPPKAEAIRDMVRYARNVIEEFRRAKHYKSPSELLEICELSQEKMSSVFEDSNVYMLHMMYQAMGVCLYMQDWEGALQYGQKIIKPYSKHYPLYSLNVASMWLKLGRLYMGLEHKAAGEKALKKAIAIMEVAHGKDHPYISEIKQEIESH

As for `CN1C(=O)[C@@]23C[C@](C)(C#N)[C@H](c4ccc5c(c4)OCO5)N2C(=O)[C@]1(C)SS3` (racemic) [ETP69, Rac-(3S,6S,7S,8aS)-6-(benzo[d][1,3]dioxol-5-yl)-2,3,7-trimethyl-1,4-dioxohexahydro-6H-3,8a-epidithiopyrrolo[1,2-a]pyrazine-7-carbonitrile], the remaining activity at 20 µM was 94% in experiment [1] (setting [8]); 95% in experiment [1] (setting [9]); 19% in experiment [5] (setting [8]); 20.4% in experiment [5] (setting [9]); 4.23% in experiment [6] (setting [8]); 4.97% in experiment [6] (setting [9]). Also, the remaining activity at 20 µM in experiment [7] (setting [8]) and in experiment [7] (setting [9]) was 107% in each case. Also, the dendritic spines result in experiment [2] (setting [10]) is reported as “increase”. Moreover, the thin spines entry in experiment [2] (setting [10]) was “increase”. In experiment [2] (Example 4 mice, cingulate cortex and hippocampus, vs DMSO), the “number of dendritic spines” value was “significantly increased”. Further, the mushroom-to-total spine ratio entry in experiment [2] (setting [11]) was “lower”. Further, the thin-to-total spine ratio result in experiment [2] (setting [11]) is reported as “higher”. Moreover, the “increase in the number of dendritic spines” value in experiment [2] (old (18-month-old) wildtype and neurodegenerative mice, hippocampus and cerebral cortex, 10 mg/kg i.p., vs DMSO control) worked out at 1.2 fold. The entries for the “Enzyme % Activity (relative to DMSO controls) Data 1” value in experiment [3] (setting [12]) and in experiment [4] (setting [12]) were 20.95% and 10.33%, respectively. Also, the “Enzyme % Activity (relative to DMSO controls) Data 2” value in experiment [3] (setting [12]) is 22.89%; in experiment [4] (setting [12]) it was 10.21%. Besides, the “inhibition relative to DMSO controls” value in experiment [3] (summary of Table 1), in experiment [4] (summary of Table 1), in experiment [5] (summary of Table 1) and in experiment [6] (summary of Table 1) was “at least 7500” throughout.
